# Columns and labels:
# Format in all cases: in vivo
# [1] = test system: Kochia (Kochia scoparia); assay: Test A preemergence; details: Bassia scoparia, pre-emergence, 240 h, 0 to 100 scale where 0 is no effect and 100 is complete control, read-out: Kochia plant response rating
# Summary of the method: (§1)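 Preemergence soil spray on seeded pots or post-emergence spray on 1–2 leaf plants, in loam–sand blend. Greenhouse ~10 d. Visual rating 0–100 against untreated plants.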
# [2] = test system: barnyardgrass (Echinochloa crus-galli); assay: Test A preemergence; details: Echinochloa crus-galli, pre-emergence, 240 h, 0 to 100 scale where 0 is no effect and 100 is complete control, read-out: Barnyardgrass plant response rating
# Summary of the method: as §1
# [3] = test system: giant foxtail (Setaria faberii); assay: Test A preemergence; details: Setaria faberi, pre-emergence, 240 h, 0 to 100 scale where 0 is no effect and 100 is complete control, read-out: Foxtail, Giant plant response rating
# Summary of the method: as §1
# [4] = test system: pigweed (Amaranthus retroflexus); assay: Test A preemergence; details: Amaranthus retroflexus, pre-emergence, 240 h, 0 to 100 scale where 0 is no effect and 100 is complete control, read-out: Pigweed plant response rating
# [5] = test system: ragweed (common ragweed, Ambrosia elatior); assay: Test A preemergence; details: Ambrosia artemisiifolia, pre-emergence, 240 h, 0 to 100 scale where 0 is no effect and 100 is complete control, read-out: Ragweed plant response rating
# Summary of the method: as §1
# [6] = test system: ryegrass, Italian (Italian ryegrass, Lolium multiflorum); assay: Test A preemergence; details: Lolium multiflorum, pre-emergence, 240 h, 0 to 100 scale where 0 is no effect and 100 is complete control, read-out: Ryegrass, Italian plant response rating
# Summary of the method: as §1
# [7] = test system: Galium (catchweed bedstraw, Galium aparine); assay: Test A postemergence; details: Galium, post-emergence, 240 h
# Summary of the method: as §1
# [8] = test system: Kochia (Kochia scoparia); assay: Test A postemergence; details: Bassia scoparia, post-emergence, 240 h
# Summary of the method: as §1
# [9] = test system: barnyardgrass (Echinochloa crus-galli); assay: Test A postemergence; details: Echinochloa crus-galli, post-emergence, 240 h
# Summary of the method: as §1
# [10] = test system: blackgrass (Alopecurus myosuroides); assay: Test A postemergence; details: Alopecurus myosuroides, post-emergence, 240 h
# Summary of the method: as §1
# [11] = test system: corn (Zea mays); assay: Test A postemergence; details: Zea mays, post-emergence, 240 h
# Summary of the method: as §1
# [12] = test system: giant foxtail (Setaria faberii); assay: Test A postemergence; details: Setaria faberi, post-emergence, 240 h
# Summary of the method: as §1
# [13] = test system: pigweed (Amaranthus retroflexus); assay: Test A postemergence; details: Amaranthus retroflexus, post-emergence, 240 h
# Summary of the method: as §1
# [14] = test system: ragweed (common ragweed, Ambrosia elatior); assay: Test A postemergence; details: Ambrosia artemisiifolia, post-emergence, 240 h
# Summary of the method: as §1
# [15] = test system: ryegrass, Italian (Italian ryegrass, Lolium multiflorum); assay: Test A postemergence; details: Lolium multiflorum, post-emergence, 240 h
# Summary of the method: as §1
# [16] = test system: wheat (Triticum aestivum); assay: Test A postemergence; details: Triticum aestivum, post-emergence, 240 h
# Summary of the method: as §1
# [17] = test system: barnyardgrass (Echinochloa crus-galli); assay: Test B flooded paddy test; details: Echinochloa crus-galli, 250 g ai/ha, Flood; 0 to 100 scale where 0 is no effect and 100 is complete control; read-out: Barnyardgrass plant response rating
# Summary of the method: (§2)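 Response scored visually against untreated controls, 0 = no effect and 100 = complete control, 13–15 d after treatment in the greenhouse. Compounds added to paddy water held 3 cm above soil surface. Treatment given at 2-leaf stage.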
# [18] = test system: ducksalad (Heteranthera limosa); assay: Test B flooded paddy test; details: Heteranthera limosa, 250 g ai/ha, Flood; 0 to 100 scale where 0 is no effect and 100 is complete control; read-out: Ducksalad plant response rating
# Summary of the method: as §2
# [19] = test system: rice (Oryra sativa); assay: Test B flooded paddy test; details: Oryza sativa, 250 g ai/ha, Flood; 0 to 100 scale where 0 is no effect and 100 is complete control; read-out: Rice plant response rating
# Summary of the method: as §2
# [20] = test system: sedge, umbrella (small-flower umbrella sedge, Cyperus difformis); assay: Test B flooded paddy test; details: Cyperus difformis, 250 g ai/ha, Flood; 0 to 100 scale where 0 is no effect and 100 is complete control; read-out: Sedge, Umbrella plant response rating
# Summary of the method: as §2
# [21] = 125 g ai/ha, preemergence, approx. 10 d
smiles,measurement,setting,value
CN1C[C@H](c2ccc(F)c(Oc3ccccc3)c2)[C@@H](C(=O)Nc2ccccc2S(C)(=O)=O)C1=O [Compound 1143],pest or weed control at 31 g/ha,"[1]; 31 g ai/ha, Preemergence",0%
same,pest or weed control at 125 g/ha,[1]; [21],0%
same,pest or weed control at 31 g/ha,"[2]; 31 g ai/ha, Preemergence",0%
same,pest or weed control at 125 g/ha,[2]; [21],40%
same,pest or weed control at 31 g/ha,"[3]; 31 g ai/ha, Preemergence",20%
same,pest or weed control at 125 g/ha,[3]; [21],80%
same,pest or weed control at 31 g/ha,"[4]; 31 g ai/ha, Preemergence",0%
same,pest or weed control at 125 g/ha,[4]; [21],0%
same,pest or weed control at 31 g/ha,"[5]; 31 g ai/ha, Preemergence",0%
same,pest or weed control at 125 g/ha,[5]; [21],0%
same,pest or weed control at 31 g/ha,"[6]; 31 g ai/ha, Preemergence",0%
same,pest or weed control at 125 g/ha,[6]; [21],0%
same,pest or weed control at 125 g/ha,"[7]; 125 g ai/ha, postemergence, visual injury on 0 to 100 scale (0 no effect, 100 complete control), approx. 10 d, read-out: Galium plant response rating",0%
same,pest or weed control at 31 g/ha,"[7]; Postemergence, 31 g ai/ha, visual injury after approx. 10 d, 0 to 100 scale, 0 no effect, 100 complete control, read-out: Plant response rating, Galium",0%
same,pest or weed control at 125 g/ha,"[8]; 125 g ai/ha, postemergence, visual injury on 0 to 100 scale (0 no effect, 100 complete control), approx. 10 d, read-out: Kochia plant response rating",0%
same,pest or weed control at 31 g/ha,"[8]; Postemergence, 31 g ai/ha, visual injury after approx. 10 d, 0 to 100 scale, 0 no effect, 100 complete control, read-out: Plant response rating, Kochia",0%
same,pest or weed control at 125 g/ha,"[9]; 125 g ai/ha, postemergence, visual injury on 0 to 100 scale (0 no effect, 100 complete control), approx. 10 d, read-out: Barnyardgrass plant response rating",50%
same,pest or weed control at 31 g/ha,"[9]; Postemergence, 31 g ai/ha, visual injury after approx. 10 d, 0 to 100 scale, 0 no effect, 100 complete control, read-out: Plant response rating, Barnyardgrass",0%
same,pest or weed control at 125 g/ha,"[10]; 125 g ai/ha, postemergence, visual injury on 0 to 100 scale (0 no effect, 100 complete control), approx. 10 d, read-out: Blackgrass plant response rating",0%
same,pest or weed control at 31 g/ha,"[10]; Postemergence, 31 g ai/ha, visual injury after approx. 10 d, 0 to 100 scale, 0 no effect, 100 complete control, read-out: Plant response rating, Blackgrass",0%
same,plant injury at 125 g/ha,"[11]; 125 g ai/ha, postemergence, visual injury on 0 to 100 scale (0 no effect, 100 complete control), approx. 10 d, read-out: Corn plant response rating",0%
same,"Corn plant response rating (crop injury, 0 = no effect, 100 = complete kill) at 31 g/ha","[11]; Postemergence, 31 g ai/ha, visual injury after approx. 10 d, 0 to 100 scale, 0 no effect, 100 complete control",0%
same,pest or weed control at 125 g/ha,"[12]; 125 g ai/ha, postemergence, visual injury on 0 to 100 scale (0 no effect, 100 complete control), approx. 10 d, read-out: Foxtail, Giant plant response rating",40%
same,pest or weed control at 31 g/ha,"[12]; Postemergence, 31 g ai/ha, visual injury after approx. 10 d, 0 to 100 scale, 0 no effect, 100 complete control, read-out: Plant response rating, Foxtail, Giant",0%
same,pest or weed control at 125 g/ha,"[13]; 125 g ai/ha, postemergence, visual injury vs untreated controls after approx. 10 d, 0 = no effect, 100 = complete control, read-out: Pigweed plant response rating (0 to 100 scale)",20%
same,pest or weed control at 31 g/ha,"[13]; Postemergence, 31 g ai/ha, visual injury after approx. 10 d, 0 to 100 scale, 0 no effect, 100 complete control, read-out: Plant response rating, Pigweed",0%
same,pest or weed control at 125 g/ha,"[14]; 125 g ai/ha, postemergence, visual injury vs untreated controls after approx. 10 d, 0 = no effect, 100 = complete control, read-out: Ragweed plant response rating (0 to 100 scale)",0%
same,pest or weed control at 31 g/ha,"[14]; Postemergence, 31 g ai/ha, visual injury after approx. 10 d, 0 to 100 scale, 0 no effect, 100 complete control, read-out: Plant response rating, Ragweed",0%
same,pest or weed control at 125 g/ha,"[15]; 125 g ai/ha, postemergence, visual injury vs untreated controls after approx. 10 d, 0 = no effect, 100 = complete control, read-out: Ryegrass, Italian plant response rating (0 to 100 scale)",0%
same,pest or weed control at 31 g/ha,"[15]; Postemergence, 31 g ai/ha, visual injury after approx. 10 d, 0 to 100 scale, 0 no effect, 100 complete control, read-out: Plant response rating, Ryegrass, Italian",0%
same,plant injury at 125 g/ha,"[16]; 125 g ai/ha, postemergence, visual injury vs untreated controls after approx. 10 d, 0 = no effect, 100 = complete control, read-out: Wheat plant response rating (0 to 100 scale)",0%
same,plant injury at 31 g/ha,"[16]; Postemergence, 31 g ai/ha, visual injury after approx. 10 d, 0 to 100 scale, 0 no effect, 100 complete control, read-out: Plant response rating, Wheat",0%
same,pest or weed control at 250 g/ha,[17],0%
same,pest or weed control at 250 g/ha,[18],0%
same,pest or weed control at 250 g/ha,[19],0%
same,pest or weed control at 250 g/ha,[20],0%

# Source: US12077503B2, “Substituted cyclic amides and their use as herbicides” (FMC CORPORATION, priority 2015, dated 2024)
